T1: brain COMT (Rattus norvegicus, UniProt P22734)
T1 construct: Aliquots of 0.5 ml of liver and whole brain homogenates were preincubated; from tissue; host or cells: whole brain homogenate of male Wistar rats
T1 sequence (P22734 1-264): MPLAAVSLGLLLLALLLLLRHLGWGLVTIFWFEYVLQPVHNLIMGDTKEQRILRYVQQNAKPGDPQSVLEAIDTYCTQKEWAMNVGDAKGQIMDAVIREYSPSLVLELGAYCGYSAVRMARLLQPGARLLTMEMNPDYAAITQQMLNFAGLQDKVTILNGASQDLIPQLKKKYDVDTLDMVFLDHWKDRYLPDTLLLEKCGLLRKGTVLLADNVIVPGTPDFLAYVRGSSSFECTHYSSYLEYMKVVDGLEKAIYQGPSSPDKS

T2: liver COMT (Rattus norvegicus, UniProt P22734)
T2 construct: Aliquots of 0.5 ml of liver and whole brain homogenates were preincubated; from tissue; host or cells: liver homogenate of male Wistar rats
T2 sequence (P22734 44-264 limits assumed): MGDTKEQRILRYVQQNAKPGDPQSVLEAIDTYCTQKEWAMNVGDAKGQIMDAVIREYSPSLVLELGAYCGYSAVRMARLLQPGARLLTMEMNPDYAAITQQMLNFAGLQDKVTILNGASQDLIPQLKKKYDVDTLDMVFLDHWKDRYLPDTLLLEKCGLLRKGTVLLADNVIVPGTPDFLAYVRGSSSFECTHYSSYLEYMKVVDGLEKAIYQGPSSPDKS

T3: rat liver COMT (Rattus norvegicus, UniProt P22734)
T3 construct: Aliquots of 0.5 ml of liver and whole brain homogenates were preincubated; from tissue; host or cells: liver homogenate of male Wistar rats
T3 sequence (P22734 44-264 limits assumed): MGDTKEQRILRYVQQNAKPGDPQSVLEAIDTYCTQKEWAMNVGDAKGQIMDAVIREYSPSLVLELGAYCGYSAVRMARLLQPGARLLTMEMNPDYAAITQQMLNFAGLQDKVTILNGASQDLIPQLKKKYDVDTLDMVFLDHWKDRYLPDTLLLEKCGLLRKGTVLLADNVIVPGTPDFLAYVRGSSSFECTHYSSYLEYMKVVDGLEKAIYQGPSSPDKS

T4: rat brain COMT (Rattus norvegicus, UniProt P22734)
T4 construct: Aliquots of 0.5 ml of liver and whole brain homogenates were preincubated; from tissue; host or cells: whole brain homogenate of male Wistar rats
T4 sequence (P22734 1-264): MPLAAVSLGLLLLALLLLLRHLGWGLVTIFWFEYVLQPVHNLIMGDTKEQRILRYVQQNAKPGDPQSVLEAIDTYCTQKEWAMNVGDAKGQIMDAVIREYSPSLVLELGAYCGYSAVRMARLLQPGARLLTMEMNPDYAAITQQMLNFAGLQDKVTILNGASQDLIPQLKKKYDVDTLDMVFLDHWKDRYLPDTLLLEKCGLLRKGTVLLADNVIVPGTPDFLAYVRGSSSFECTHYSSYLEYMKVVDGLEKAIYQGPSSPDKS

B1: rat brain COMT (Rattus norvegicus) (protein)
chain: MPLAAVSLGLLLLALLLLLRHLGWGLVTIFWFEYVLQPVHNLIMGDTKEQRILRYVQQNAKPGDPQSVLEAIDTYCTQKEWAMNVGDAKGQIMDAVIREYSPSLVLELGAYCGYSAVRMARLLQPGARLLTMEMNPDYAAITQQMLNFAGLQDKVTILNGASQDLIPQLKKKYDVDTLDMVFLDHWKDRYLPDTLLLEKCGLLRKGTVLLADNVIVPGTPDFLAYVRGSSSFECTHYSSYLEYMKVVDGLEKAIYQGPSSPDKS
B2: rat liver COMT (Rattus norvegicus) (protein)
chain: MGDTKEQRILRYVQQNAKPGDPQSVLEAIDTYCTQKEWAMNVGDAKGQIMDAVIREYSPSLVLELGAYCGYSAVRMARLLQPGARLLTMEMNPDYAAITQQMLNFAGLQDKVTILNGASQDLIPQLKKKYDVDTLDMVFLDHWKDRYLPDTLLLEKCGLLRKGTVLLADNVIVPGTPDFLAYVRGSSSFECTHYSSYLEYMKVVDGLEKAIYQGPSSPDKS

Assays:
rats = assay: Behavioural testing: potentiation of amphetamine-induced hyperactivity (locomotor activity, stereotypies); assay type: in vivo, rat; conditions: for pattern of locomotor activity and stereotyped behaviour versus corresponding controls: given p.o. six hours before amphetamine challenge (0.5, 2.0, 4.0 mg/kg s.c.)
brain COMT = molecular target: T1, brain COMT; assay: Brain COMT activity in homogenates after administration of test compounds by gastric tube; assay type: in vivo; conditions: for % inhibition of COMT activity, brain, 0.5 h / % inhibition of COMT activity, brain, 1 h / % inhibition of COMT activity, brain, 3 h / % inhibition of COMT activity, brain, 6 h / % inhibition of COMT activity, brain, 9 h: rat brain homogenate, mean ± S.E.M., n=4; for % inhibition of COMT activity, brain, 0.5 h: 0.5 h after administration by gastric tube; for % inhibition of COMT activity, brain, 1 h: 1 h after administration by gastric tube; for % inhibition of COMT activity, brain, 3 h: 3 h after administration by gastric tube; for % inhibition of COMT activity, brain, 6 h: 6 h after administration by gastric tube; for % inhibition of COMT activity, brain, 9 h: 9 h after administration by gastric tube
liver COMT = molecular target: T2, liver COMT; assay: Liver COMT activity in homogenates after administration of test compounds by gastric tube; assay type: in vivo; conditions: for % inhibition of COMT activity, liver, 0.5 h / % inhibition of COMT activity, liver, 1 h / % inhibition of COMT activity, liver, 3 h / % inhibition of COMT activity, liver, 6 h / % inhibition of COMT activity, liver, 9 h: rat liver homogenate, mean ± S.E.M., n=4; for % inhibition of COMT activity, liver, 0.5 h: 0.5 h after administration by gastric tube; for % inhibition of COMT activity, liver, 1 h: 1 h after administration by gastric tube; for % inhibition of COMT activity, liver, 3 h: 3 h after administration by gastric tube; for % inhibition of COMT activity, liver, 6 h: 6 h after administration by gastric tube; for % inhibition of COMT activity, liver, 9 h: 9 h after administration by gastric tube
rat liver COMT = molecular target: T3, rat liver COMT; assay: In vitro COMT inhibition, rat liver homogenate (methylation of adrenaline to metanephrine); assay type: biochemical
rat brain COMT = molecular target: T4, rat brain COMT; assay: In vitro COMT inhibition, rat brain homogenate (methylation of adrenaline to metanephrine); assay type: biochemical
[1] = literature values (Dingemanse 1995; Keranen 1994); cited from earlier work
[2] = substrate: CNCC(O)c1ccc(O)c(O)c1; assay: cells, lysate or membranes named; conditions: saturation experiments, 95% confidence intervals, pH 7.8
[3] = COMT inhibitor 30 mg/kg p.o. 6 h before amphetamine challenge (s.c.)

Molecule	% inhibition of COMT activity, brain, 0.5 h (brain COMT)	% inhibition of COMT activity, brain, 1 h (brain COMT)	% inhibition of COMT activity, brain, 3 h (brain COMT)	% inhibition of COMT activity, brain, 6 h (brain COMT)	% inhibition of COMT activity, brain, 9 h (brain COMT)	% inhibition of COMT activity, liver, 0.5 h (liver COMT)	% inhibition of COMT activity, liver, 1 h (liver COMT)	% inhibition of COMT activity, liver, 3 h (liver COMT)	% inhibition of COMT activity, liver, 6 h (liver COMT)	% inhibition of COMT activity, liver, 9 h (liver COMT)	IC50 (rat liver COMT)	IC50 (rat brain COMT)	other results
O=C(Cc1ccccc1)c1cc(O)c(O)c([N+](=O)[O-])c1 [Compound B, 1-(3,4-Dihydroxy-5-nitrophenyl)-2-phenyl-1-ethanone]													pattern of locomotor activity and stereotyped behaviour versus corresponding controls (rats): same pattern of locomotor activity and stereotyped behaviour as their corresponding controls
O=C(CCCc1ccccc1)c1cc(O)c(O)c([N+](=O)[O-])c1 [D]	85.1 ± 1.7%	69.3 ± 5.1%	33.5 ± 4.4%	26.7 ± 4.0%	12.2 ± 5.8%	97.5 ± 0.1%	95.3 ± 0.8%	67.5 ± 7.8%	52.0 ± 9.5%	39.0 ± 13.2%	1850 nM	2.9 nM	
O=C(CCCCc1ccccc1)c1cc(O)c(O)c([N+](=O)[O-])c1 [E]	87.4 ± 1.3%	74.2 ± 4.2%	25.0 ± 3.1%	−5.6 ± 7.5%	−6.7 ± 5.0%	99.2 ± 0.1%	98.9 ± 0.3%	88.1 ± 3.9%	36.0 ± 6.3%	−4.0 ± 8.0%	1280 nM	6.7 nM	inhibitory profile on brain versus liver COMT after oral administration (liver COMT; rat, comparison of brain and liver COMT inhibition (Table 2)): much more potent upon liver COMT than brain COMT
CC(N)Cc1ccccc1 (centres unmarked) [amphetamine]													duration of stereotypies during the 600 s observation period (rats; amphetamine 4.0 mg/kg s.c. alone): 250 s; horizontal activity and rearing (rats; amphetamine 0.5 and 2.0 mg/kg s.c. alone): dose-dependent increases
CCN(CC)C(=O)/C(C#N)=C/c1cc(O)c(O)c([N+](=O)[O-])c1 [Entacapone, (E)-2-cyano-N,N-diethyl-3-(3,4-dihydroxy-5-nitrophenyl)acrylamide]													pattern of locomotor activity and stereotyped behaviour versus corresponding controls (rats): same pattern of locomotor activity and stereotyped behaviour as their corresponding controls
CNCC(O)c1ccc(O)c(O)c1 (centres unmarked) [adrenaline, reference compound]													Vmax of adrenaline O-methylation, liver (rat liver COMT; liver homogenate, saturation experiments): 61.6±3.8 nmol mg protein^−1 h^−‘; Vmax of adrenaline O-methylation, brain (rat brain COMT; whole brain homogenate, saturation experiments): 1.35±0.02 nmol mg protein^−1 h^−‘
Cc1ccc(C(=O)c2cc(O)c(O)c([N+](=O)[O-])c2)cc1 [Tolcapone, 3,4-dihydroxy4′-methyl-5-nitrobenzophenone, reference compound]	98.9 ± 0.1%	98.7 ± 0.2%	97.0 ± 0.5%	85.8 ± 8.2%	77.5 ± 1.8%	100.0 ± 0.0%	99.9 ± 0.1%	98.0 ± 0.7%	94.1 ± 0.3%	67.0 ± 4.0%			inhibition in brain and liver COMT at 6 h and 9 h after administration (brain COMT; rat, oral, 6 h and 9 h, brain and liver): marked inhibition; ED50 (brain COMT; rat, po, read-out: ED50 for inhibiting brain COMT): 1.6 ± 0.1 mg/kg; ED50 (liver COMT; rat, po, read-out: ED50 for inhibiting liver COMT): 0.7 ± 0.1 mg/kg; duration of stereotyped behavior in rats given 4.0 mg/kg amphetamine (rats; [3]): increased two-fold; locomotor activity in rats given 4.0 mg/kg amphetamine (rats; [3]): marked decrease in locomotor activity; locomotor activity in rats treated with 0.5 and 2.0 mg/kg amphetamine (rats; [3]): significantly increase locomotor activity; half-life [1]: 2 h
O=C(c1ccccc1)c1cc(O)c(O)c([N+](=O)[O-])c1 [Compound A, 3,4-dihydroxy-5-nitrobenzophenone]	96.3 ± 0.4%	96.8 ± 0.3%	97.0 ± 0.3%	85.8 ± 7.5%	34.9 ± 6.0%	99.0 ± 0.2%	98.7 ± 0.2%	96.9 ± 2.5%	80.5 ± 7.3%	31.7 ± 5.5%	935 nM	7.1 nM	
O=C(CCc1ccccc1)c1cc(O)c(O)c([N+](=O)[O-])c1 [C]	89.9 ± 0.7%	86.2 ± 0.5%	59.8 ± 5.8%	33.4 ± 7.0%	0.4 ± 5.3%	98.4 ± 0.3%	97.8 ± 0.2%	95.0 ± 0.7%	70.8 ± 12.8%	39.9 ± 11.1%	829 nM	3.1 nM	
B1													Km ([2]; other: whole brain homogenate): 0.7 µM
B2													Km ([2]; other: liver homogenate): 238.5 (128.5; 348.5) μM

Reference: patent US6512136B1, “Substituted 2-phenyl-1-(3,4-dihydroxy-5-nitrophenyl)-1-ethanones, their use in the treatment of some central and peripheral nervous system disorders and pharmaceutical compositions containing them” (Portela & C.A., S.A., priority 1998, dated 2003)
